# Experimental data from US12116357B2, “Heteroaryl-triazole and heteroaryl-tetrazole compounds as pesticides” (Bayer Aktiengesellschaft, priority 2018, dated 2024).
# Columns and labels:
# Type in all cases: in vivo
# [1] = tested on: Aedes aegypti strain MONHEIM; experiment: Aedes aegypti test (surface treatment & contact assay); details: 24 hours after contact, read-out: efficacy (mortality); for mortality at 20 mg/m2: surface concentration 20 mg/m^2, 30 min exposure; for mortality at 4 mg/m2: surface concentration 4 mg/m^2, 30 min exposure
# Summary of the method: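 Compound dissolved in acetone (2 mg/ml) with 2000 ppm rapeseed oil methyl ester, applied to glazed tile and acetone evaporated; adult mosquitoes exposed on the dried surface for 30 min. Percent mortality scored 24 h after contact.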
# [2] = tested on: Nilaparvata lugens; experiment: Nilaparvata lugens spray test; details: 96 h
# Summary of the method: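 Rice plants were sprayed with compound formulated in acetone/dimethylformamide and diluted in water containing alkylarylpolyglycol ether emulsifier, then infested with brown planthoppers. Percent mortality was scored after 4 days, where 100% means all insects killed.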
# [3] = tested on: Musca domestica strain WHO-N; experiment: Musca domestica test (surface treatment & contact assay); details: 24 hours after contact, read-out: efficacy (mortality); for mortality at 4 mg/m2: surface concentration 4 mg/m^2, 30 min exposure; for mortality at 20 mg/m2: surface concentration 20 mg/m^2, 30 min exposure
# Summary of the method: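 Test compound dissolved in acetone (2 mg/ml) with 2000 ppm RME, applied to glazed tile and acetone evaporated. Adult flies placed on dried surface for 30 min exposure. Mortality (%) scored 24 h after contact; 100% means all insects dead.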
# [4] = tested on: Boophilus microplus; experiment: Boophilus microplus injection test; details: Rhipicephalus microplus, 168 h, 20 μg/animal, egg deposition after 7 days, read-out: efficacy (infertile eggs)
# Summary of the method: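 Engorged adult female ticks, five per test, received a 1 μl abdominal injection of compound in DMSO, then were kept in a climate chamber. Fertile egg deposition checked after 7 days, with unclear eggs held until hatching at about 42 days. Efficacy 100% means all eggs infertile, 0% all fertile.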
# [5] = tested on: Phaedon cochleariae; experiment: Phaedon cochleariae spray test; details: 168 h, after 7 days
# Summary of the method: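 Chinese cabbage leaf disks sprayed with compound in acetone/DMF diluted in water with 1000 ppm alkylarylpolyglycol ether emulsifier, then infested with mustard beetle larvae once dry. Mortality (%) scored after 7 days; 100% = all larvae killed, 0% = none.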
# [6] = tested on: Ctenocephalides felis; experiment: Ctenocephalides felis oral test; details: 48 h, 100 ppm in cattle blood, after 2 days
# Summary of the method: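 Adult unfed cat fleas (~20) fed through parafilm on cattle blood containing compound (DMSO concentrate diluted in blood); blood held at 37° C., fleas at room temperature. Mortality (%) scored after 2 days.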
# [7] = tested on: Myzus persicae; experiment: Myzus persicae oral test; details: 120 h
# Summary of the method: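 Mixed-population aphids feed through parafilm on compound solution (acetone concentrate diluted with water) combined with IPL41 insect medium (33%+15% sugar). Mortality (%) read after 5 days, 100% meaning all aphids killed.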
# [8] = tested on: Spodoptera frugiperda; experiment: Spodoptera frugiperda spray test; details: 168 h
# Summary of the method: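 Maize leaf sections were sprayed with compound formulated in acetone/DMF and diluted in water containing 1000 ppm emulsifier, then infested with fall armyworm larvae once dry. Percent mortality was scored after 7 days.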
# [9] = tested on: Blattella germanica strain PAULINIA; experiment: Blattella germanica test (surface treatment & contact assay); details: 24 hours after contact, read-out: efficacy (mortality); for mortality at 20 mg/m2: surface concentration 20 mg/m^2, 30 min exposure
# Procedure: (§1) • Solvent: Aceton+2000 ppm rapeseed oil methyl ester (RME)
# In order to produce a sufficient, active ingredient containing solution it is necessary to solve the test compound in the solvent-mix (acetone at 2 mg/ml/RME 2000 ppm). This solution is pipetted onto a glazed tile and after evaporation of the acetone, adult animals of the species Blattella germanica strain […] are placed onto the dried surface. The exposure time is 30 minutes.
# (§2) Mortality in percent (%) is determined 24 hours after contact of the insects to the treated surface. 100% mortality means that all tested insects are dead, whereas 0% means that no insect died.
# [10] = tested on: Myzus persicae; experiment: Myzus persicae spray test; details: 120 h
# Procedure: (§3) • Solvent: 78.0 parts by weight acetone • 1.5 parts by weight dimethylformamide • Emulsifier: alkylarylpolyglycol ether
# (§4) To produce a suitable preparation of active compound, 1 part by weight of active compound is mixed with the stated amount of solvents and is diluted with water, containing an emulsifier concentration of 1000 ppm, to the desired concentration. Further test concentrations are prepared by dilution with emulsifier containing water.
# Chinese cabbage (Brassica pekinensis) leaf disks infected with all instars of the green peach aphid (Myzus persicae), are sprayed with a preparation of the active ingredient of the desired concentration.
# After 5 days mortality in % is determined. 100% means all aphids have been killed and 0% means none of the aphids have been killed.
# [11] = tested on: Nezara viridula; experiment: Nezara viridula spray test; details: 96 h
# Summary of the method: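 Barley plants infested with N. viridula larvae sprayed with compound in acetone/DMF diluted in water with 1000 ppm emulsifier at the desired concentration. Mortality (%) scored after 4 days; 100% means all bugs killed.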
# [12] = tested on: Tetranychus urticae (OP-Resistant); experiment: Tetranychus urticae (OP-resistant) spray test; details: 144 h, after 6 days
# Procedure: as §3, §4
# French bean (Phaseolus vulgaris) leaf disks infected with all instars of the two spotted spidermite (Tetranychus urticae), are sprayed with a preparation of the active ingredient of the desired concentration.
# After 6 days mortality in % is determined. 100% means all spider mites have been killed and 0% means none of the spider mites have been killed.
# [13] = tested on: Ctenocephalides felis; experiment: Ctenocephalides felis in-vitro contact test, adult cat flea; details: 5 μg/cm^2, after 48 hours, read-out: efficacy (fleas dead or moribund)
# Procedure: (§5) 9 mg compound is solved in 1 ml acetone and diluted with acetone to the desired concentration. 250 μl of the test solution is filled in 25 ml glass test tubes and homogeneously distributed on the inner walls by rotation and tilting on a shaking device (2 h at 30 rpm). With a compound concentration of 900 ppm, an inner surface of 44.7 cm^2 and a homogeneous distribution, a dose of 5 μg/cm^2 is achieved.
# After the solvent has evaporated, each test tube is filled with 5-10 adult cat fleas (Ctenocephalides felis), closed with a perforated lid and incubated in a lying position at room temperature and relative humidity. After 48 hours efficacy is determined. The fleas are patted on the ground of the tubes and are incubated on a heating plate at 45-50° C. for at most 5 minutes. Immotile or uncoordinated moving fleas, which are not able to escape the heat by climbing upwards, are marked as dead or moribund.
# An efficacy of 100% means all fleas are dead or moribund; 0% means no fleas are dead or moribund.
# [14] = tested on: Rhipicephalus sanguineus; experiment: Rhipicephalus sanguineus in-vitro contact test, adult brown dog ticks
# Procedure: as §5
# After the solvent has evaporated, each test tube is filled with 5-10 adult brown dog ticks (Rhipicephalus sanguineus), closed with a perforated lid and incubated in a lying position at room temperature and relative humidity. After 48 hours efficacy is determined. The ticks are patted on the ground of the tubes and are incubated on a heating plate at 45-50° C. for at most 5 minutes. Immotile or uncoordinated moving ticks, which are not able to escape the heat by climbing upwards, are marked as dead or moribund.
# An efficacy of 100% means all ticks are dead or moribund; 0% means no ticks are dead or moribund.
# [15] = tested on: Culex quinquefasciatus strain P00; experiment: Culex quinquefasciatus test (surface treatment & contact assay); details: 24 hours after contact, read-out: efficacy (mortality); for mortality at 4 mg/m2: surface concentration 4 mg/m^2, 30 min exposure; for mortality at 20 mg/m2: surface concentration 20 mg/m^2, 30 min exposure
# Procedure: as §1
# In order to produce a sufficient, active ingredient containing solution it is necessary to solve the test compound in the solvent-mix (acetone at 2 mg/ml/RME 2000 ppm). This solution is pipetted onto a glazed tile and after evaporation of the acetone, adult mosquitoes of the species Culex quinquefasciatus strain P00 are placed onto the dried surface. The exposure time is 30 minutes.
# as §2
# [16] = tested on: Anopheles funestus strain FUMOZ-R; experiment: Anopheles funestus test (surface treatment & contact assay); details: 24 hours after contact, read-out: efficacy (mortality); for mortality at 4 mg/m2: surface concentration 4 mg/m^2, 30 min exposure; for mortality at 20 mg/m2: surface concentration 20 mg/m^2, 30 min exposure
# Procedure: as §1
# In order to produce a sufficient, active ingredient containing solution it is necessary to solve the test compound in the solvent-mix (acetone at 2 mg/ml/RME 2000 ppm). This solution is pipetted onto a glazed tile and after evaporation of the acetone, adult mosquitoes of the species Anopheles funestus strain FUMOZ-R (Hunt et al., Med. Vet. Entomol. 2005 September; 19(3): 271-275) are placed onto the dried surface. The exposure time is 30 minutes.
# as §2
Compound,mortality at 20 mg/m2 [1] [%],mortality at 500 g/ha [2] [%],mortality at 4 mg/m2 [3] [%],mortality at 20 mg/m2 [3] [%],pest or weed control at 0.02 mg [4] [%],mortality at 500 g/ha [5] [%],mortality at 100 ppm [6] [%],mortality at 4 ppm [7] [%],mortality at 20 ppm [7] [%],mortality at 500 g/ha [8] [%],mortality at 500 g/ha [11] [%],mortality at 500 g/ha [12] [%],pest or weed control at 5 µg/cm2 [13] [%],"efficacy (ticks dead or moribund) ([14]; 1 μg/cm^2, after 48 hours) [%]",mortality at 20 mg/m2 [16] [%],also measured
CC(c1ncnn1-c1ncccn1)N(CC1CS(=O)(=O)C1)C(=O)c1cc(Cl)cc(C(F)(F)F)c1 (stereo not shown) [Example I-004],90 to 100,100,90 to 100,90 to 100,100,100,100,100,100,100,100,,,,,"mortality at 4 mg/m2 ([9]; surface concentration 4 mg/m^2, 30 min exposure): 80 to 100%; mortality at 20 mg/m2 [9]: 80 to 100%; mortality at 500 g/ha [10]: 100%"
"CCOCN(C(=O)c1cc(Cl)cc(C(F)(F)F)c1)C(C)c1ncnn1-c1ncccn1 (stereo not shown) [Example I-013, 3-Chloro-N-(ethoxymethyl)-N-{1-[1-(pyrimidin-2-yl)-1H-1,2,4-triazol-5-yl]ethyl}-5-(trifluoromethyl)benzamide]",,100,,,100,100,100,100,100,100,,80,100,100,,"efficacy (ticks dead or moribund) ([14]; 5 μg/cm^2, after 48 hours): 100%"
CSCCN(C(=O)c1cc(Cl)cc(C(F)(F)F)c1)C(C)c1ncnn1-c1ncccn1 (stereo not shown) [Example I-017],90 to 100,100,90 to 100,90 to 100,100,100,100,100,100,100,100,,100,80,85 to 100,"mortality at 4 mg/m2 [1]: 80 to 100%; mortality at 4 mg/m2 [15]: 85 to 100%; mortality at 20 mg/m2 [15]: 90 to 100%; mortality at 4 mg/m2 [16]: 85 to 100%; efficacy (ticks dead or moribund) ([14]; 5 μg/cm^2, after 48 hours): 100%"
CC(c1ncnn1-c1ncccn1)N(C(=O)c1cc(Cl)cc(C(F)(F)F)c1)C1COC1 (stereo not shown) [Example I-021],90 to 100,,,90 to 100,100,100,100,100,100,83,100,,100,,,mortality at 4 mg/m2 [1]: 80 to 100%; mortality at 20 mg/m2 [9]: 80 to 100%
CON(C(=O)c1cc(Cl)cc(C(F)(F)F)c1)C(C)c1ncnn1-c1ncccn1 (stereo not shown) [Example I-026],,,,,100,100,100,100,100,100,100,90,,,,
CCON(C(=O)c1cc(Cl)cc(C(F)(F)F)c1)C(C)c1ncnn1-c1ncccn1 (stereo not shown) [Example I-027],,,,,100,100,100,100,100,,100,80,100,100,85 to 100,mortality at 4 mg/m2 [16]: 85 to 100%
CSCCN(C(=O)c1cc(Cl)cc(S(C)(=O)=O)c1)C(C)c1ncnn1-c1ccc(C#N)cn1 (stereo not shown) [Example I-035],90 to 100,90,90 to 100,90 to 100,,,,100,,100,100,90,100,,85 to 100,mortality at 4 mg/m2 [15]: 85 to 100%; mortality at 20 mg/m2 [15]: 90 to 100%; mortality at 500 g/ha [10]: 90%
